Series [1] is described as follows: Caco-2 bidirectional permeability assay. In kind it is in vitro ADME. The following applies: human, Caco-2; B to A permeability divided by A to B permeability. As to the method: (§1) 10 μM Test article was added to the apical (A) surface of Caco-2 cell monolayers (in HBSS buffer with 0.3% DMSO and 5 μM LY at 37 degrees C.) and compound permeation into the basolateral (B) compartment measured following 90 minutes incubation. This was also performed in the reverse direction (basolateral to apical) to investigate active transport. LC-MS/MS is used to quantify levels of both the test and standard control compounds. Efflux ratio was calculated by dividing the B to A permeability by the A to B permeability.
(§2) Drug permeability:Papp=(VA/(Area×time))×([drug]accepter/(([drug]initial,donor)×Dilution Factor)
(§3) The permeability of the compounds of the invention was assessed in a standard caco-2 bidirectional permeability assay (see general methods).
Background: Passage across Caco-2 layers is used to estimate intestinal permeability.

Series [2] relates to Caco-2 cell monolayers. Put plainly: Caco-2 bidirectional permeability assay. As to conditions: Caco-2, 10 μM test article, 90 minutes. In kind it is in vitro ADME. As to the method: as §1, §2, §3
Series [3] has as its system E. coli, S. salivarius, L. casei, B. longum, M. luteus. Description: MIC assay, summary over all bacterial strains tested. It is filed as cell-based. The following applies: any of the strains tested. As to the method: The bioactivity of macrolide compounds against 4 strains of common gut bacteria (Escherichia coli, Streptococcus salivarius subsp. salivarius, Lactobacillus casei and Bifidobacterium longum subsp. infantis) and common mammalian skin isolate Micrococcus luteus, was assessed using the Minimum Inhibitory Concentration (MIC) assay. Bacterial strains were purchased from DSMZ (Brunswick, Germany) except M. luteus which was obtained from NCIMB, and stored in 20% glycerol at −80° C. Stock solutions (100% DMSO) of positive controls (azithromycin and erythromycin), and of test compounds 1 and 2 were diluted in broth to working stock concentrations of 256 μg/ml (final assay testing concentration range 128 μg/ml to 0.00391 μg/ml). Stock solutions of all other compounds were diluted in broth to working stock concentrations of 128 μg/ml (final assay testing concentration range 64 μg/ml to 0.00195 μg/ml). Bacterial strains were cultivated in appropriate broth in an anaerobic chamber at 37° C., except for M. luteus which was incubated aerobically at 37° C. 18 h cultures were diluted in broth to an OD595 of 0.1 and then further diluted 1:10. In 96-well plates, in duplicate, 200 μl working stock of test compound was transferred to well 1 and serially diluted (1:2) in broth. 100 μl bacterial suspension was aliquoted into each well and mixed thoroughly. Appropriate sterility controls were included and plates were incubated in an anaerobic chamber, or aerobically (M. luteus) at 37° C. for 18 h. The MIC was determined to be the concentration of test compound in the first well with no visible growth.

These results are taken from patent publication US20210040134A1, “COMBINATIONS OF MACROLIDE COMPOUNDS AND IMMUNE CHECKPOINT INHIBITORS” (ISR IMMUNE SYSTEM REGULATION HOLDING AB (PUBL), priority 2018, published 2021).

What is called efflux ratio is a quotient of directional permeabilities that is used to spot active efflux.

`CC[C@H]1OC(=O)[C@H](C)[C@@H](O[C@H]2C[C@@H](N(C)C)[C@H](O)[C@@H](C)O2)[C@H](C)[C@@H](O)[C@](C)(O)C[C@@H](C)CN(C)[C@H](C)[C@@H](O)[C@]1(C)O` [Compound 1]: in series [1], the efflux ratio at 90 minutes, 10 μM was 63. For the same molecule, the Papp in series [2] is listed as 0.32 × 10^6/cm · s^−1. In series [3], the “antibacterial activity against the bacterial strains tested (in words)” value was “no antibacterial activity”.
